Laboratory results published in ChEMBL document CHEMBL4651402, “Screening of ~5500 FDA-approved drugs and clinical candidates for anti-SARS-CoV-2 activity” (2021).

System: SARS-CoV-2
Assay: microbe, parasite or virus in culture
Details: Severe acute respiratory syndrome coronavirus 2, Vero C1008, 48 h

SMILES: COc1cc([C@H]2Oc3cc([C@H]4Oc5cc(O)cc(O)c5C(=O)[C@@H]4O)ccc3O[C@@H]2CO)ccc1O [SILYBIN A]
- IC50: > 20 µM
- IC50 (read-out: pIC50 (converted)): > 20 µM

SMILES: CC(=O)O[C@]1(C(C)=O)CC[C@H]2[C@@H]3C=C(C)C4=CC(=O)CC[C@]4(C)[C@H]3CC[C@@]21C [MEGESTROL ACETATE]
- IC50: > 20 µM
- IC50 (read-out: pIC50 (converted)): > 20 µM

SMILES: CC1(C)SCCN(S(=O)(=O)c2ccc(Oc3ccncc3)cc2)[C@@H]1C(=O)NO
- IC50: > 20 µM
- IC50 (read-out: pIC50 (converted)): > 20 µM

SMILES: COc1ccc(Cc2cnc(N)nc2N)cc1OC [DIAVERIDINE]
- IC50: > 20 µM
- IC50 (read-out: pIC50 (converted)): > 20 µM

SMILES: C=CCN1CCCC1CNC(=O)c1cc2nn[nH]c2cc1OC (stereo unspecified) [ALIZAPRIDE]
- IC50: > 20 µM
- IC50 (read-out: pIC50 (converted)): > 20 µM

SMILES: O=C(O)Cc1nn(Cc2ccc(Br)cc2F)c(=O)c2ccccc12 [PONALRESTAT]
- IC50: > 20 µM
- IC50 (read-out: pIC50 (converted)): > 20 µM

SMILES: CC(C)(C)c1ccc(S(=O)(=O)Nc2ccc(Cl)cc2C(=O)c2cc[n+]([O-])cc2)cc1 [VERCIRNON]
- IC50: > 20 µM
- IC50 (read-out: pIC50 (converted)): > 20 µM

SMILES: C=C[C@]12CN(C)[C@@H]3[C@H]4CO[C@H](C[C@H]41)[C@]1(C(=O)Nc4ccccc41)[C@@H]32 [GELSEMINE]
- IC50: > 20 µM
- IC50 (read-out: pIC50 (converted)): > 20 µM

SMILES: C[N+]1(C)CCOC(O)(c2ccc(-c3ccc(C4(O)C[N+](C)(C)CCO4)cc3)cc2)C1 (stereo unspecified) [HEMICHOLINIUM-3]
- IC50: > 20 µM
- IC50 (read-out: pIC50 (converted)): > 20 µM

SMILES: COc1ccccc1-c1coc2cc(O)ccc2c1=O
- IC50: > 20 µM
- IC50 (read-out: pIC50 (converted)): > 20 µM

SMILES: CCOc1ccc(Cc2cc([C@]34OC[C@](CO)(O3)[C@@H](O)[C@H](O)[C@H]4O)ccc2Cl)cc1 [ERTUGLIFLOZIN]
- IC50: > 20 µM
- IC50 (read-out: pIC50 (converted)): > 20 µM

SMILES: CC(=O)NS(=O)(=O)c1ccc(N)cc1 [SULFACETAMIDE]
- IC50: > 20 µM
- IC50 (read-out: pIC50 (converted)): > 20 µM

SMILES: C[C@H](CCC(=O)NCCS(=O)(=O)O)[C@H]1CC[C@H]2[C@@H]3[C@@H](O)C[C@@H]4C[C@H](O)CC[C@]4(C)[C@H]3CC[C@]12C [TAURURSODIOL]
- IC50: > 20 µM
- IC50 (read-out: pIC50 (converted)): > 20 µM

SMILES: O=C(O)c1ccc(OCCn2ccnc2)cc1 [DAZOXIBEN]
- IC50: > 20 µM
- IC50 (read-out: pIC50 (converted)): > 20 µM

SMILES: CCOC(=O)[C@H](CCc1ccccc1)N[C@H]1CCc2ccccc2N(CC(=O)O)C1=O [BENAZEPRIL]
- IC50: > 20 µM
- IC50 (read-out: pIC50 (converted)): > 20 µM

SMILES: Nc1nc(=O)n([C@H]2C[C@H](O)[C@@H](CO)O2)cc1I [IBACITABINE]
- IC50: > 20 µM
- IC50 (read-out: pIC50 (converted)): > 20 µM

SMILES: C=C[C@@H]1C[C@]1(NC(=O)[C@@H]1C[C@@H]2CN1C(=O)[C@H](C(C)(C)C)NC(=O)O[C@@H]1C[C@H]1CCCCCc1nc3ccc(OC)cc3nc1O2)C(=O)NS(=O)(=O)C1CC1 [GRAZOPREVIR ANHYDROUS]
- IC50: > 20 µM
- IC50 (read-out: pIC50 (converted)): > 20 µM

SMILES: NCCc1c[nH]c2ccccc12 [TRYPTAMINE]
- IC50: > 20 µM
- IC50 (read-out: pIC50 (converted)): > 20 µM

SMILES: CCn1c(=Cc2cccc[n+]2CC)sc(=C2Sc3ccccc3N2C)c1=O
- IC50: > 20 µM
- IC50 (read-out: pIC50 (converted)): > 20 µM

SMILES: COc1ccc(-c2cc(=O)c3c(O)cc(O)cc3o2)cc1 [ACACETIN]
- IC50: > 20 µM
- IC50 (read-out: pIC50 (converted)): > 20 µM

SMILES: CN1CC(O)C2=CC(=O)C(=O)C=C21 (stereo unspecified)
- IC50: > 20 µM
- IC50 (read-out: pIC50 (converted)): > 20 µM

SMILES: CC(C)Oc1ccc(-c2nc(-c3cccc4c3CC[C@@H]4NCCO)no2)cc1C#N [OZANIMOD]
- IC50: > 20 µM
- IC50 (read-out: pIC50 (converted)): > 20 µM

SMILES: CCCC(C)C1(CC)C(=O)NC(=O)NC1=O (stereo unspecified) [PENTOBARBITAL]
- IC50: > 20 µM
- IC50 (read-out: pIC50 (converted)): > 20 µM

SMILES: C[C@H](CCC(=O)O)[C@H]1CC[C@H]2[C@@H]3CCC4C[C@H](O)CC[C@]4(C)[C@H]3CC[C@]12C (stereo partly specified)
- IC50: > 20 µM
- IC50 (read-out: pIC50 (converted)): > 20 µM

SMILES: CC1NCCc2cc(O)c(O)cc21 (stereo unspecified)
- IC50: > 20 µM
- IC50 (read-out: pIC50 (converted)): > 20 µM

SMILES: COc1ccc(CC(C)C(C)Cc2ccc(OC)c(OC)c2)cc1OC (stereo unspecified)
- IC50: > 20 µM
- IC50 (read-out: pIC50 (converted)): > 20 µM

SMILES: CN(C(=O)CNC(=O)CN)c1ccc(Cl)cc1C(=O)c1ccccc1Cl [LORZAFONE ANHYDROUS]
- IC50: > 20 µM
- IC50 (read-out: pIC50 (converted)): > 20 µM

SMILES: O[C@@H]1[C@@H](O)[C@@H](O)CN2CC[C@@H](O)[C@H]12
- IC50: > 20 µM
- IC50 (read-out: pIC50 (converted)): > 20 µM
